Values of other authors in patent US5574044A, “Muscarine antagonists” (Merck & Co., Inc., priority 1994, dated 1996).

Assays:
[1] = test system: smooth muscle (M3 type) receptor; conditions: ordinarily called M3 type but variously called type M2 or M3
[2] = test system: eye; conditions: in vivo
[3] = test system: pupil; conditions: in vivo
[4] = test system: ciliary muscle; conditions: in vivo
[5] = in vivo
[6] = test system: muscarinic receptors

Row | Structure (SMILES) | selectivity for smooth muscle (M3 type) receptor [1] | axial elongation / enlargement of the eye [2] | pupil dilation [3] | action on the ciliary muscle / ocular focusing [4] | sensitization assays [5] | muscarinic selectivity and duration [6]
1 | C[N+]1(C)CCC(OC(=O)C(c2ccccc2)c2ccccc2)CC1 [Example 4-DAMP, 4-diphenylacetoxy-N-methylpiperadine methiodide] | relatively selective antagonist for smooth muscle | – | – | – | – | –
2 | CN1CCc2cccc3c2[C@H]1Cc1ccc(O)c(O)c1-3 [apomorphine] | – | inhibit or actually prevent the axial enlargement of the eye | – | – | – | –
3 | CN1[C@@H]2CC[C@H]1C[C@@H](OC(=O)C(CO)c1ccccc1)C2 (stereo partly drawn) [atropine] | – | – | causes mydriases (increase of pupil size) | its action on the ciliary muscle to inhibit ocular focusing impairs near visual work like reading | test positive in sensitization assays | long-acting non-specific antimuscarinic agent
4 | CN1CCN(CC(=O)N2c3ccccc3C(=O)Nc3cccnc32)CC1 [pirenzepine] | – | inhibits axial elongation | far less effective at pupil dilation than atropine | – | test positive in sensitization assays | –
